Laboratory results from patent US8481567B2, “Sigma receptor compounds” (Laboratorios del Dr. Esteve, S.A., priority 2006, dated 2013).

Experiments:
[1] = target: sigma-1 site (Homo sapiens, UniProt Q99720); settings: statement in words, background section; cited from earlier work
[2] = target: sigma-2 site (Homo sapiens, UniProt Q5BJF2); settings: statement in words, background section; cited from earlier work
Sequence of sigma-2 site (Q5BJF2 whole entry): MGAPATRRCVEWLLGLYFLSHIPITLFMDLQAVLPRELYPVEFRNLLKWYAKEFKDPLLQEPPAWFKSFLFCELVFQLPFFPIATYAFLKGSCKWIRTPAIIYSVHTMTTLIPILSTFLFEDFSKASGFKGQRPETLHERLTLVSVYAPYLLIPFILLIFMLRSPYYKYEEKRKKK

Sequence of sigma-1 site (Q99720 whole entry): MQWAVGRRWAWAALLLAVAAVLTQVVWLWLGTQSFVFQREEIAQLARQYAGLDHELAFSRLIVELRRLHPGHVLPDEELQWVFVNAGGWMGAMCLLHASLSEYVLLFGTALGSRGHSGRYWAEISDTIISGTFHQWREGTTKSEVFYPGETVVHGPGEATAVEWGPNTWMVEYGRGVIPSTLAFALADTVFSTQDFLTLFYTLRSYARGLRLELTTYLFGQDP

Molecule	melting point [°C]	affinity for the sigma-1 site [1]	affinity for the sigma-2 site [2]
Cn1ccc2c1CCCC2CCN1CCC(O)(c2ccc(Cl)cc2)CC1.O=C(O)C(=O)O (stereo not shown)	154 to 155	–	–
Cn1ccc2c1CCCC2CCN1CCC(c2ccccc2)CC1.O=C(O)C(=O)O (stereo not shown)	86 to 90	–	–
SKF 10047	–	nanomolar	micromolar
